In patent US20050186287A1, “Copper agonist that binds on the copper binding site of APP and/or exerts an inhibiting effect on the release of amyloid Abeta peptide” (priority 1999, published 2005):

Columns and labels:
[1] = tested on: CHO cells stably transfected with human APP695; test: Aβ production in CHO cells stably transfected with human APP695, cell variant not given; format: cell-based
Description: The employed Zn^2+ concentrations were 10 μM, 50 μM, 100 μM and 200 μM. Thereafter, it was studied from which concentration of Zn(II) the release of the Aβ peptide can be inhibited. The following experiments were carried out for this purpose:
(1) CHO cells which were stably transfected with human APP695 were incubated in MEM medium with the above-mentioned concentrations of Zn(II) (10 to 200 μM in PBS). CHO cells with copper ions (10 to 50 μM in PBS) or without any addition were incubated as controls. The production of Aβ (total), Aβ40 and Aβ42 was determined qualitatively and quantitatively with polyclonal and monoclonal antibodies. APP, Aβ and p3 were detected according to biosynthetic labeling with ^35S methionine as followed. The stably transfected CHO cells, which were incubated as mentioned above with the respective substances, were incubated for four hours with 220 μCi ^35S methionine as follows. […] The protein concentrations were determined beforehand using the protein detection kit from BioRad company and the amount of incorporated radioactivity was determined via scintillation counting. […] The supernatants were incubated with the above mentioned polyclonal APP and Aβ antibodies overnight at 4° C., the immunocomplexes formed were isolated with protein A sepharose and analyzed according to the method described in Ida et al., J. Biol. Chem. 271, pp. 22908-22914.

[2] = tested on: Aβ peptide with the human sequence; test: Aβ production in CNS and blood of transgenic mice given Zn(II); format: in vivo; conditions: orally, i.v., i.p., s.c. and i.c.
Description: (2) Primary neurons were isolated from transgenic mice which expressed the Aβ peptide with the human sequence, and their Aβ production was determined as described in (1).
(3) The above mentioned Zn(II) concentrations in PBS were applied to transgenic mice orally, i.v., i.p., s.c. and i.c. (see (2)) and the Aβ production was determined in the CNS and in the blood (which was withdrawn from the caudal vein) as outlined above in (1). The serum obtained from the caudal vein of the mice (150-200 μl) is filled using PBS buffer up to a volume of 500 μl and incubated with 5 μg monoclonal antibody WO-2 (Ida et al., supra) and 20 μl of a 1:1 suspension of protein G sepharose overnight at 4° C. on an overhead shaker. The resulting supernatant is then incubated with polyclonal antibodies (22734/6) against APP and the immunocomplexes are analyzed as described above in (1). The Aβ immunocomplexes are separated by means of 12% bis-tricin Novex gels in accordance with the instructions of the manufacturer and the relevant molecular weight range is analyzed after the transfer of the proteins to a nitrocellulose filter (380 mA at 4° C. for 40 minutes) with the monoclonal antibody WO-2 using the ECL technique according to Ida et al. The result here was also that a decrease of the Aβ production could be obtained from a concentration of 50 μM Zn(II).

[3] = tested on: APP processing in CHO cells (CUR3, APP695); test: APP processing in copper-resistant CHO-CUR3 cells transfected with APP695 (35S-methionine labeling, immunoprecipitation); format: cell-based, human
Excerpt: (§1) CHO cells were transfected with a c-myc-tagged APP695 vector (Peraus et al., J. Neurosci 17, page 7714-7724 (1997)) or with the expression vector (pcDNA3) by means of a highly efficient calcium phosphate transfection (Chen et al., Biotechniques 6, pages 632-638 (1988). The pSP65 (Invitrogen company) N-tag-APP 695 DNA was cloned into the vector pcDNA3 (Invitrogen/ITC Biotechnology, Heidelberg) using the SmaI or EcoRV cloning sites. The transfection efficiency was checked by means of immunoprecipitation of APP with polyclonal rabbit-anti-c-myc antibody (18/47; produced against the amino acid sequence EQKLISEEDL of the c-myc sequence; from Eurogentec, Seraing, Belgium) and immunoblots using the monoclonal mouse antibody 22C11 (Boehringer Mannheim) in the “ECL” detection system (Amersham, Braunschweig). The parental CHO-K1 cells and the copper-resistant cell variant CUR3 were cultured at 37° C. in “Eagles” medium (BME), to which 2 mM L-glutamine, 0.1 mM proline, 20 mM HEPES and 10% fetal calf serum (Boehringer Ingelheim) were added. The basic copper concentration was 0.8 μM. CUR3 cells were cultured in a medium with 200 μM of copper added.
(§2) Stably transfected CHO cells of a culture dish (60 mm) were treated for 4 hours with 2 ml essential minimum medium (MEM) which contained no methionine (Sigma company, Munich) and was supplemented with 220 μCi [^35S]methionine (Amersham company, Braunschweig) and 5% N2. The conditioned medium (CM) and the cells were collected and immunorepcipitated. The protein concentrations were determined beforehand by means of a “BioRad” protein assay (Bradford et al., Anal. Biochem. 72, pages 248-254 (1976)) or the radioactively labeled proteins were precipitated with 10% trichloroacetic acid (TCA) and the incorporated [^35S]methionine was measured (Beckman LS 6000IC). The cells were lyzed in extraction buffer which contained 50 mM Tris-CHl (pH value 7.5), 150 mM NaCl, 2 mM EDTA, 2% triton X-100, 2% NP40, 10 μg/ml aprotinin and 10 μg/ml leupeptin. For removing cell debris, the lysate and the medium were centrifuged for 10 minutes at 13,000×g and the medium was adjusted to 25 mM Tris-CHl (pH value 8.5), 1 mM PMSF, 10 μg/ml aprotinin, 10 μg/ml leupeptin, 0.5% triton X-100 and 0.5% NP40. The solubilized proteins were diluted in 100 mM Tris-HCl (pH value 7.5), 300 mM NaCl and 4 mM EDTA at a concentration of 1:2. The supernatants were incubated overnight at 4° C. with APP antibodies with end-over-end rotation in an overhead shaker. In some experiments, the resulting supernatants were then analyzed using Aβ antiserum. Immunocomplexes were obtained with protein A sepharose and analzyed as described in (Weidemann et al., Cell 57, pages 115-126 (1989)).
(§3) For detecting APP, polyclonal rabbit antibodies directed against recombinant Fd-APP770 (antiserum 22734/6 against the amino acid residues 18-687 of APP770 or antiserum 23850/6 against the APP amino acid residues 18-491 (FIG. 1) were diluted at a concentration of 1:500 for precipitation. The antisera were produced in a laboratory according to standard methods known to the person skilled in the art. Aβ, p3.5 and […] were recognized by the polyclonal antibodies 830 (diluation 1:50; Aβ, p3.5 and p3 were likewise precipitated) which had been produced against a synthetic peptide corresponding to the Aβ amino acid residues 1-40 (FIG. 1). Aβ and its derivatives were separated by 10-20% Tris-tricin-polyacrylamide gels and APP using 7% Tris-glycin-polyacrylamide gels or 7% Tris-tricin-polyacrylamide gels. For immunoblots cell extracts and extracellular medium were precipitated with 10% TCA, washed with acetone and dissolved in sample buffer. After the electrophoresis, the gels were further processed as described in (Simons et al., J. Neurosci 16, pages 899-908 (1996)) and quantified with the “Fuji-Bas-PhosphorImager” system. The data were expressed as average values +/− standard deviation and, unless indicated otherwise, they represent the result of at least two separate experiments. […]

[4] = tested on: APP processing in CHO cells (K1, APP695); test: APP processing in parental CHO-K1 cells transfected with APP695 (35S-methionine labeling, immunoprecipitation); format: cell-based, human
Excerpt: as §1, §2, §3

[5] = tested on: CHO cells; test: Viability of CHO cells (LDH outflow); format: cell-based; conditions: different copper concentrations, 4 h labeling, entire experiment
Description: During the labeling period copper chloride or zinc chloride (concentrations: 5 μM to 200 μM) were added to the culturing medium. D(−)-penicillamine (PEN; Sigma), bathocuproin-disulfonate (BC; Aldrich) and 1,10-phenanthroline ([…]; Sigma) were added to the medium up to a final concentration of 100 μM (PEN and BC) or 200 μM (PEN). The viability of the cells was measured by means of the lactate dehydrogenase (LDH) outflow into the culture (41). The LDH outflow was measured as enzyme activity (units/liter) after 2 and 4 hours in the medium of 70% confluent monolayers of CHO cells in “Eagle” medium modified according to Dulbecco (DMEM)
For investigating the regulation of the APP metabolism by copper ions, CHO cells stably transfected with APP695 were labeled for 4 hours with ^35S-labeled methionine in the presence of different copper concentrations and following immunoprecipitation with polyclonal antibodies which detect APP (22734/6) or detect Aβ and p3 ([…]), the secretions of the APP ectodomain, of Aβ and p3 were measured. […] APP695 derivatives released in conditioned medium were detected as bands of 105 and 97.5 kDa (FIG. 3b), they probably differing in that the upper band has a higher content of sialic acids.

Structure (SMILES): [Ca+2] [Ca(II)]
- Aβ production ([1]; above 200 μM, detection limit reached): no further decrease

Structure (SMILES): [Cl-].[Cl-].[Zn+2] [Zn(II), zinc chloride]
- Zn(II) concentration from which Aβ production could be reduced drastically ([1]; CHO cells, MEM medium, 10 to 200 μM Zn(II) tested): ≥ 50 µM
- Zn(II) concentration from which a decrease of the Aβ production could be obtained [2]: ≥ 50 µM
- Aβ production reduced by ([3]; 50 μM Zn(II)): 60%
- Aβ production reduced by ([3]; 100 μM Zn(II)): 90%
- Aβ production reduced by ([3]; 200 μM Zn(II)): 99%
- secretion of APP ([3]; Zn(II) concentrations above 50 μM): lowered secretion
- secretion of APP ([4]; CHO-K1 cells, Zn(II) concentrations above 50 μM): lowered secretion
- Aβ production reduced by ([4]; K1 cells, 50 μM Zn(II)): 20%
- Aβ production reduced by ([4]; K1 cells, 200 μM Zn(II)): 60%

Structure (SMILES): [Cl][Cu][Cl] [Cu(II), copper chloride]
- viability of the cell lines [5]: no reduced viability
- APP695, [%] increase/decrease as compared to standard conditions ([3]; 50 μM Cu(II), 4 h, cell lysate (cAPP)): 550%
- p3, [%] increase/decrease as compared to standard conditions ([3]; 50 μM Cu(II), 4 h, medium): 270%
- Aβ, [%] increase/decrease as compared to standard conditions ([3]; 50 μM Cu(II), 4 h, medium, % of basal concentration): 20%
- SAPP695c, [%] increase/decrease as compared to standard conditions ([3]; 50 μM Cu(II), 4 h, soluble APP695 in conditioned medium, relative to basal medium (0.8 μM Cu)): 265%
- Aβ levels ([3]; Cu(II) concentrations below the basal level (0.8 μM)): increased drastically
- Aβ concentration ([3]; above 100 μM copper): hardly detectable
- secretion of p3 ([3]; between 20 μM and 50 μM copper in the medium): 270%
- Cu(II) concentration at which the increase in sAPP695 reached a maximum ([3]; conditioned medium): 50 µM
- percentage of cAPP ([3]; copper concentration of 50 μM exceeded in the medium): 550%
- p3.5 concentration ([3]; increasing copper (50 μM and above)): strongly lowered
- Aβ, [%] increase/decrease as compared to standard conditions ([4]; K1 cells, 10 μM Cu(II), 4 h): 20%
- p3, [%] increase/decrease as compared to standard conditions ([4]; K1 cells, 10 μM Cu(II), 4 h): 154%
- APP695, [%] increase/decrease as compared to standard conditions ([4]; K1 cells, 10 μM Cu(II), 4 h, cell lysate (cAPP)): 295%
- SAPP695c, [%] increase/decrease as compared to standard conditions ([4]; K1 cells, 10 μM Cu(II), 4 h, soluble APP695 in medium): 475%
- sAPP751/770 level ([4]; K1 cells, 10 μM copper, endogenous KPI-containing isoforms): 275%
- Aβ levels ([4]; K1 cells, Cu(II) concentrations below the basal level (0.8 μM)): increased drastically
- Cu(II) concentration at which the increase in sAPP695 reached a maximum ([4]; K1 cells, conditioned medium): 10 µM
- Aβ production ([4]; K1 cells, increasing copper concentrations): below the detection limit
